Results taken from patent US20140335083A1, “METHODS OF TREATMENT AND PREVENTION OF EYE DISEASES” (GLAXO GROUP LIMITED, priority 2011, published 2014).
Where two headings read alike, the source gives them in different places.

Key:
[1] = system: retinal neovascularization in C57BL/6 mice; experiment: Oxygen-induced retinopathy, area of retinal neovascularization; assay type: in vivo; details: 5 ug peri-ocularly every 5 days
Method: C57BL/6 mice placed in 75% O2 at postnatal day (P) 7 and at P12 were returned to room air and treatment initiated with compound or vehicle. At P17, the area of retinal NV on the surface of the retina was measured as described previously (Shen et al., 2007). Briefly, P17 mice were given an intraocular injection of 1 μl of rat anti-mouse platelet endothelial cell adhesion molecule-1 (PECAM-1) antibody (Pharmingen, San Jose, Calif., USA); after 12 h, they were euthanized, and eyes were fixed in PBS-buffered formalin for 5 h at room temperature. Retinas were dissected, washed, and incubated with goat-anti rat polyclonal antibody conjugated with Alexa 488 (Invitrogen, Carlsbad, Calif., USA) at 1:500 dilution at room temperature for 45 min and flat mounted. An observer masked with respect to treatment group measured the area of NV per retina by image analysis.
(see, FIGS. 12 and 13). In systemic experiments both eyes were examined and no significant differences were observed between CCR3 inhibitor '994 and vehicle treated groups. In topical experiments no significant differences were noted between CCR3 inhibitor '994 and vehicle groups nor treated and fellow eye in the CCR3 inhibitor '994 treated group. […] Consequently SU4312 acts similarly on retinal neovascularization to that of an alternative receptor tyrosine kinase inhibitor pazopanib which was effective in limiting choroidal neovascularization.

[2] = system: laser-induced model of CNV AMD; details: oral dosing; Mizutani et al., 2011; cited from earlier work
[3] = system: laser-induced CNV in Cynomolgus monkey; experiment: Laser-induced choroidal neovascular AMD study in the Cynomolgus monkey, Grade IV lesions; assay type: in vivo
Method: Cynomolgus monkeys were dosed with vehicle or the CCR3 antagonist tool compound the '415 compound as shown in Table A for 29 days with laser occurring […]. […]
The macula of each eye underwent laser treatment with a 532-nm diode green laser burns (OcuLight GL, IRIDEX Corp Inc, Mountain View, Calif.) using a slit lamp delivery system and a Kaufman-Wallow (Ocular Instruments Inc, Bellevue, Wash.) plano fundus contact lens. Animals were anesthetized and nine areas symmetrically placed in the macula of each eye. The laser parameters included a 75-micron spot size and 0.1-second duration. The power setting used was assessed by the ability to produce a blister and a small haemorrhage. Unless haemorrhage is observed with the first laser treatment, a second laser spot will be placed adjacent to the first following the same laser procedure (except the wattage would be adjusted). For areas not adjacent to the fovea, the initial power setting was 500 mW; if a second spot is placed, the power was set to 650 mW. For the area adjacent to the fovea, the power settings was 400 mW (initial treatment) and 550 mW (second treatment). […]
Animals were fasted before fluorescein angiography for at least 2 hours prior to being anesthetized and the eyes dilated with a mydriatic agent. […] Comparison of the incidence of Grade IV lesions between groups was evaluated.

[4] = biological target: T1, Cynomolgus monkey CCR3 (Macaca fascicularis, UniProt Q9BDS8); experiment: Cynomolgus monkey whole blood eotaxin-stimulated eosinophil shape change assay; assay type: cell-based
T1 construct: from tissue; host or cells: Cynomolgus monkey whole blood (eosinophils)
T1 sequence (Q9BDS8 1-355): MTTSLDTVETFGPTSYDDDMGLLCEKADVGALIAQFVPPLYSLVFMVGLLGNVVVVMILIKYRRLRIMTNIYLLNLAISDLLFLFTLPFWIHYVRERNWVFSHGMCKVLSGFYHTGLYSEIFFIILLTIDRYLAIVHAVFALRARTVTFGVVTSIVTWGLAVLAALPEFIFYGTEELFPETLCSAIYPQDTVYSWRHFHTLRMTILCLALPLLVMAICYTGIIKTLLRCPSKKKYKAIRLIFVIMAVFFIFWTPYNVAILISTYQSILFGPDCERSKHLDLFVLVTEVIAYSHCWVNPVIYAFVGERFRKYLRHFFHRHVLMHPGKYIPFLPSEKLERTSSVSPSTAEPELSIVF
Method: Blood (10 mL) was taken from Cynomolgus monkeys and 1.1 ml of 3.8% sodium citrate solution added. Aliquots (90 μl) were incubated with antagonist at room temperature for 10 minutes then transferred to BSA-coated micronic tubes containing agonist (10 μl human eotaxin (Peprotech) Eotaxin was present at final concentrations between 0 and 1000 nM. The cells were incubated at 37° C. for a further 4 minutes before addition of […] of ice-cold fixation buffer (a ¼ dilution of 1x Cellfix (Becton Dickinson)). After a minimum of 2 minutes the fixed samples were transferred into 2 ml of ice cold erythrocyte lysis buffer (155 mM NH4Cl, 10 mM KHCO3) and incubated on ice until lysis was complete (˜30 minutes). The mean forward scatter of the eosinophil population was then determined on a FACScalibur flow cytometer.
The concentration response curve of eotaxin-1 on eosinophil shape change in Cynomolgus whole blood and the effect of pre-incubation of 10 nM and 100 nM the '415 compound is shown in FIG. 11.

[5] = biological target: T2, Cynomolgus whole blood CCR3 (Macaca fascicularis, UniProt Q9BDS8); experiment: Fractional receptor occupancy at trough in Cynomolgus monkey; assay type: in vivo; details: at trough (8 hours); both 9 mg/kg/day and 60 mg/kg/day, TID
T2 construct: from tissue; host or cells: Cynomolgus monkey whole blood (eosinophils)
T2 sequence (Q9BDS8 1-355): T1 sequence (Q9BDS8 1-355)

[6] = Exposure in Cynomolgus monkey; details: in vivo

CN(C)c1ccc(/C=C2\C(=O)Nc3ccccc32)cc1 [SU4312]
effect on retinal neovascularization [1]: effective inhibitor | p, reduction in retinal neovascularization, treated versus fellow (non-treated) eyes [1]: < 0.004 | p, reduction in retinal neovascularization, treated versus vehicle treated eyes [1]: < 0.003

Cc1ccc[n+]([O-])c1C(=O)N1CCC(=CC(=O)NC2CCN(Cc3ccc4cc(F)ccc4c3)C2)CC1 (centres unmarked) [YM-344031]
efficacy in a laser-induced model of CNV AMD [2]: effective

Cn1nnc(CNC(=O)NC[C@H]2CN(Cc3ccc(Cl)c(Cl)c3)CCO2)n1 [the '415 compound, (S)-1-((4-(3,4-dichlorobenzyl)morpholin-2-yl)methyl)-3-((2-methyl-2H-tetrazol-5-yl)methyl)urea]
effect on the generation of grade IV lesions ([3]; 20 mg/kg TID po, fluorescence angiography at 16, 24 and 30 days post-laser): statistically robust effect | effect on the number of grade IV lesions ([3]; lower dose (3 mg/kg TID po)): not statistically different from controls | inhibition of human eotaxin-induced eosinophil shape change ([4]; Cynomolgus whole blood): concentration-dependent, surmountable inhibition | Kb ([4]; depending on experiment, read-out: pA2, potency against Cynomolgus monkey CCR3 (converted)): 10 to 100 nM | Kb ([4]; eotaxin-1 stimulated eosinophil shape change in Cynomolgus whole blood, read-out: mean pA2 (Schild analysis) (converted)): 15.8 nM | fractional receptor occupancy [5]: > 95% | exposure in Cynomolgus monkey [6]: reasonable exposure in this primate with low inter-animal variability
